Source: publication PMC7016953 (Cells, 2020)
Where two headings read alike, the source gives them in different places.

Columns and labels:
TRPC3 [1] = system: T1, TRPC3; test: Microfluorometric single-cell [Ca2+]i analysis, fura-2-loaded HEK cells stably expressing TRPC3; assay type: cell-based, human; conditions: 50 µM
T1 construct: expressed in transfected cells
Method: The microfluorometric single-cell [Ca^2+]i analysis was performed on an inverted epifluorescence microscope (Carl Zeiss, Jena, Germany) and calibrated as described. Cells were grown on 25 mm coverslips and loaded with 4 µM fura-2/AM (AAT Bioquest, Sunnyvale, CA, U.S.A.) in HBS containing 0.2% BSA for 30 min at 37 °C. After gently rinsing the coverslips with HBS, coverslips were mounted in a bath chamber and superfused with HBS containing 0.035% BSA.
Figure 2 Microfluorometric single-cell analysis of artemisinin-induced increases in [Ca^2+]i in fura-2-loaded HEK cells stably expressing TRPC3 (A), TRPC6 (B), or TRPC7 (C). […] Experiments were performed either in standard bath solution, containing 1 mM Ca^2+ (black lines and bars), or in a nominally Ca^2+-free HBS buffer, supplemented with 200 µM EGTA (grey lines and bars). Time courses of averaged responses (left), and statistical analysis of 6–11 independent imaging experiments with means and S.D. (right) are shown. Significant differences (p < 0.05, Student´s t-test with paired data: #, with unpaired data: *) are marked for the indicated comparisons; n.s.: difference is statistically not significant.

TRPC6 = system: T2, TRPC6; test: Microfluorometric single-cell [Ca2+]i analysis, fura-2-loaded HEK cells stably expressing TRPC6; assay type: cell-based, human; conditions: 50 µM, standard bath 1 mM Ca2+
T2 construct: expressed in transfected cells
Method: The microfluorometric single-cell [Ca^2+]i analysis was performed on an inverted epifluorescence microscope (Carl Zeiss, Jena, Germany) and calibrated as described. Cells were grown on 25 mm coverslips and loaded with 4 µM fura-2/AM (AAT Bioquest, Sunnyvale, CA, U.S.A.) in HBS containing 0.2% BSA for 30 min at 37 °C. […] Experiments were performed either in standard bath solution, containing 1 mM Ca^2+ (black lines and bars), or in a nominally Ca^2+-free HBS buffer, supplemented with 200 µM EGTA (grey lines and bars). Time courses of averaged responses (left), and statistical analysis of 6–11 independent imaging experiments with means and S.D. (right) are shown. Significant differences (p < 0.05, Student´s t-test with paired data: #, with unpaired data: *) are marked for the indicated comparisons; n.s.: difference is statistically not significant.

TRPC3 [2] = biological target: T3, TRPC3 (Homo sapiens, UniProt Q13507); test: Whole-cell patch-clamp recordings in HEK TRPC3-YFP cells; assay type: cell-based; conditions: for EC50: n = 12–27 cells
T3 construct: expressed in transfected cells
T3 sequence (Q13507 1-848 isoform Q13507-3): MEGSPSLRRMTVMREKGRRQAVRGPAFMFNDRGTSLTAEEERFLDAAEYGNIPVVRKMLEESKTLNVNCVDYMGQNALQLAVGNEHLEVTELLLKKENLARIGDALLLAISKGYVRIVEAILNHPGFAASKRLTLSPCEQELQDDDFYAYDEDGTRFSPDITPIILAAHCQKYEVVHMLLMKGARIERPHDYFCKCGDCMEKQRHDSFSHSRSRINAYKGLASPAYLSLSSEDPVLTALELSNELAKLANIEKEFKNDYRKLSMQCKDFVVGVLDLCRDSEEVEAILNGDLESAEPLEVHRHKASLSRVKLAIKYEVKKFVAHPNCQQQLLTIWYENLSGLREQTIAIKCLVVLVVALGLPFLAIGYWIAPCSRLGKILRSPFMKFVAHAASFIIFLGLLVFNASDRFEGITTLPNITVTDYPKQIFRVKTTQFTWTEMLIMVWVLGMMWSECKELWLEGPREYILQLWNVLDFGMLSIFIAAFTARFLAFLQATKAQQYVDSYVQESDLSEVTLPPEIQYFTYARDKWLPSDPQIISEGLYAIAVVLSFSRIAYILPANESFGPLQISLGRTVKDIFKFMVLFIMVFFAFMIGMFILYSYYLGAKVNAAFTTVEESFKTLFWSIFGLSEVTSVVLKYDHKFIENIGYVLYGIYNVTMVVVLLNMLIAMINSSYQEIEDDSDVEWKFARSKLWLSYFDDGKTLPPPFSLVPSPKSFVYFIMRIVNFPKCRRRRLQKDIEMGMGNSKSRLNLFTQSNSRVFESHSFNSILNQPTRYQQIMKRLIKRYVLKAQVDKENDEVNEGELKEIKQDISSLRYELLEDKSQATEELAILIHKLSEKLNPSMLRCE
Method: The recordings of TRPC3, TRPC6, or TRPC7 membrane currents in HEK293 or PC12 cells were realized by using a Multiclamp 700B amplifier with a Digidata 1440A digitizer controlled by the PClamp 10 software (all Molecular Devices, Sunnyvale, CA, U.S.A.). Recordings were obtained at room temperature either in the whole-cell or in an outside-out configuration as indicated. Cells were seeded as described above, but at lower density, mounted in a chamber (Warner Instruments, Hamden, CT; U.S.A.), placed onto the stage of an inverted microscope, and perfused with required solution. The standard extracellular solution contained 140 mM NaCl, 5 mM CsCl, 2 mM MgCl2, 1 mM CaCl2, 10 mM HEPES, and 0.035% BSA adjusted to pH 7.4 with NaOH. The composition of standard intracellular solution was 140 mM CsCl, 1 mM MgCl2, 5 mM EGTA, and 10 mM HEPES adjusted to pH 7.25 with CsOH; the osmolarity was 295 mOsm l^−1. In outside-out measurements, the pipette solution contained 5 mM EGTA and 1.1 mM CaCl2 to achieve a calculated free Ca^2+ concentration of 100 nM.
Patch pipettes were pulled from borosilicate glass capillaries BG150F-8P (Science Products, Hofheim, Germany) with a PIP6 pipette puller (HEKA Elektronik, Lambrecht, Germany). […] In all whole-cell measurements, the series resistance was lower than 13 MΩ, and compensated by 70%. If the access was unstable during the experiment (increase in series resistance by more than 15% at the end of the experiment), the cell was omitted from the analysis. To record current/voltage (I/V) curves, voltage ramps (400 mV s^−1) ranging from –100 to +100 mV were applied. Currents were filtered at 3 kHz with a four-pole Bessel filter and sampled at 10 kHz.
Figure 4 Electrophysiological analysis of artemisinin-induced whole-cell currents in HEKTRPC3-YFP cells. The voltage protocol depicted in the box (duration of 0.8 s) was applied in 1 s intervals, and steady state inward and outward current densities averaged at potentials of –100 or +100 mV as well as voltage ramps (0.4 Vs^−1) were extracted from the data. (A) Current densities at +100 and –100 mV, respectively.

Hill coefficient, outward currents (TRPC3 [2]; +100 mV): 2.2 | EC50 (TRPC3 [2]; +100 mV, read-out: EC50 to activate TRPC3 outward currents): 33 µM | Hill coefficient, inward currents (TRPC3 [2]; −100 mV): 2.4 | EC50 (TRPC3 [2]; −100 mV, read-out: EC50 to activate TRPC3 inward currents): 25 µM
Compound: C[C@@H]1CC[C@H]2[C@@H](C)C(=O)O[C@@H]3O[C@@]4(C)CC[C@@H]1[C@]32OO4 [artemisinin]
[Ca2+]i signal in TRPC3-expressing cells in Ca2+-free bath (TRPC3 [1]; nominally Ca2+-free HBS with 200 µM EGTA): abolished | [Ca2+]i response in TRPC3-overexpressing HEK cells (TRPC3 [1]; standard bath 1 mM Ca2+): confirmed the responses | [Ca2+]i response in TRPC6-expressing cells (TRPC6): remained unaffected
